Measurements reported in publication PMC7178874, “The antibiotic furagin and its derivatives are isoform-selective human carbonic anhydrase inhibitors” (Journal of Enzyme Inhibition and Medicinal Chemistry, 2020).

Assays:
Assay in all cases: stopped-flow CO2 hydration assay
Format in all cases: biochemical
hCA I = biological target: T1, hCA I (Homo sapiens, UniProt P00915); conditions: read-out: KI (nM)* / CA I (converted)
T1 construct: gene CA1; recombinant, obtained in-house
Text: stopped-flow CO2 hydration assay on hCA I

hCA XII = biological target: T2, hCA XII (Homo sapiens, UniProt O43570); conditions: read-out: KI (nM)* / CA XII
T2 construct: gene CA12; recombinant, obtained in-house
Text: stopped-flow CO2 hydration assay on hCA XII

hCA IX = biological target: T3, hCA IX (Homo sapiens, UniProt Q16790); conditions: read-out: KI (nM)* / CA IX
T3 construct: gene CA9; recombinant, obtained in-house
Text: stopped-flow CO2 hydration assay on hCA IX

hCA II = biological target: T4, hCA II (Homo sapiens, UniProt P00918); conditions: read-out: KI (nM)* / CA II (converted)
T4 construct: gene CA2; recombinant, obtained in-house
Text: stopped-flow CO2 hydration assay on hCA II

T1 sequence (P00915 2-261): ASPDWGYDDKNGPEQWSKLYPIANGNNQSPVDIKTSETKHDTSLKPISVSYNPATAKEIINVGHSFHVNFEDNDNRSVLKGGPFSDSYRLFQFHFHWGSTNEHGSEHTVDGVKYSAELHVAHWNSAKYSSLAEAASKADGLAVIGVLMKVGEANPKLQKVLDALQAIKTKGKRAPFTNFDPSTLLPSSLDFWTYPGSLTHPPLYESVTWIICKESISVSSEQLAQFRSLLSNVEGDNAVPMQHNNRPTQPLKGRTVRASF
T2 sequence (O43570 25-354 limits assumed): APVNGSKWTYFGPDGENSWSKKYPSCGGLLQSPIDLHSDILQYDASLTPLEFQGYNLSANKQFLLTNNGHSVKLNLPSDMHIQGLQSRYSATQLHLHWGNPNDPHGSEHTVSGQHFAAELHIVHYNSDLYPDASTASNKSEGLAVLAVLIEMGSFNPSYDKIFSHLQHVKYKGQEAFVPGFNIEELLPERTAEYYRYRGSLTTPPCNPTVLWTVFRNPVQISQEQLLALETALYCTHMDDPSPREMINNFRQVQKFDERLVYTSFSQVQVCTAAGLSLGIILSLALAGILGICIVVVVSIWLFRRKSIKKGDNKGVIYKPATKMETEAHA

SMILES	Ki (hCA I) [nM]	Ki (hCA XII) [nM]	Ki (hCA IX) [nM]	Ki (hCA II) [nM]
O=C1CN(/N=C/C=C/c2ccc([N+](=O)[O-])o2)C(=O)N1 [Furagin]	> 100000	57	260	9600
O=C1CN(N=Cc2ccc([N+](=O)[O-])cc2)C(=O)N1 [compound 4, 1-((4-Nitrobenzylidene)amino)imidazolidine-2,4-dione]	> 100000	2800	7400	11100
COC(=O)c1ccc(C=NN2CC(=O)NC2=O)cc1 [compound 5, Methyl 4-(((2,4-dioxoimidazolidin-1-yl)imino)methyl)benzoate]	> 100000	930	4900	8300
O=C1CN(N=CCCCC=NN2CC(=O)NC2=O)C(=O)N1 [compound 6, 1,1’-((Pentane-1,5-diylidene)bis(azaneylylidene))bis(imidazolidine-2,4-dione)]	19100	160	1100	4000
O=C1CN(N=Cc2ccc(OCc3ccccc3)cc2)C(=O)N1 [compound 8, 1-((4-(Benzyloxy)benzylidene)amino)imidazolidine-2,4-dione]	> 100000	910	350	540
CCOC(=O)/C=C/C=NN1CC(=O)NC1=O [compound 9, Ethyl (2E)-4-((2,4-dioxoimidazolidin-1-yl)imino)but-2-enoate]	45900	440	810	23600
CC(C)=CC=NN1CC(=O)NC1=O [compound 10, 1-((3-Methylbut-2-en-1-ylidene)amino)imidazolidine-2,4-dione]	28800	880	2900	16500
COc1ccc(/C=C/C=NN2CC(=O)NC2=O)cc1 [compound 11, 1-(((2e)-3–(4-methoxyphenyl)allylidene)amino)imidazolidine-2,4-dione]	> 100000	360	400	3100
O=C1CN(N=Cc2ccc(B(O)O)cc2)C(=O)N1 [compound 13]	90700	230	7300	14200

Further lines, results first:

Ki (hCA I) [nM]	Ki (hCA XII) [nM]	Ki (hCA IX) [nM]	Ki (hCA II) [nM]	SMILES
39600	5600	3500	900	O=C1CN(N=Cc2ccccc2)C(=O)N1 [compound 2, 1-(Benzylideneamino)-imidazolidine-2,4-dione]
57600	4700	1200	6400	COc1ccc(C=NN2CC(=O)NC2=O)cc1 [compound 3, 1-((4-Methoxybenzylidene)amino)imidazolidine-2,4-dione]
16800	1700	850	710	O=C1CN(N=Cc2ccoc2)C(=O)N1 [compound 7, 1-((Furan-3-ylmethylene)amino)imidazolidine-2,4-dione]
> 100000	150	5800	59900	O=C1CN(N=Cc2ccc(O)cc2O)C(=O)N1 [compound 12, 1-((2,4-Dihydroxybenzylidene)amino)imidazolidine-2,4-dione]
51800	1300	4500	4200	O=C1CN(N=Cc2ccccn2)C(=O)N1 [compound 14, 1-((Pyridin-2-ylmethylene)amino)imidazolidine-2,4-dione]
45600	3200	2300	620	O=C1CN(N=Cc2cccnc2)C(=O)N1 [compound 15, 1-((Pyridin-3-ylmethylene)amino)imidazolidine-2,4-dione]
26600	810	1600	3300	O=C1CN(N=Cc2ccncc2)C(=O)N1 [compound 16, 1-((Pyridin-4-ylmethylene)amino)imidazolidine-2,4-dione]
9600	350	560	12400	O=C1CN(N=Cc2cnc[nH]2)C(=O)N1 [compound 17, 1-(((1 h-Imidazol-5-yl)methylene)amino)imidazolidine-2,4-dione]
